# Results: patent US8106055B2, “Substituted amide compounds” (Gruenenthal GmbH, priority 2007, dated 2012)
# Key:
# [1] = biological target: T1, human bradykinin 1 receptor (B1R) (Homo sapiens, UniProt P46663); assay: Functional investigation on the human bradykinin 1 receptor (B1R), Ca2+ FLIPR assay in CHO K1 hB1R cells; assay type: cell-based; settings: B1R antagonism human; test substance 10 μM; Ca2+ FLIPR, CHO K1 hB1R cells
# T1 construct: expressed in transfected cells; host or cells: CHO K1 cells
# T1 sequence (P46663 1-353): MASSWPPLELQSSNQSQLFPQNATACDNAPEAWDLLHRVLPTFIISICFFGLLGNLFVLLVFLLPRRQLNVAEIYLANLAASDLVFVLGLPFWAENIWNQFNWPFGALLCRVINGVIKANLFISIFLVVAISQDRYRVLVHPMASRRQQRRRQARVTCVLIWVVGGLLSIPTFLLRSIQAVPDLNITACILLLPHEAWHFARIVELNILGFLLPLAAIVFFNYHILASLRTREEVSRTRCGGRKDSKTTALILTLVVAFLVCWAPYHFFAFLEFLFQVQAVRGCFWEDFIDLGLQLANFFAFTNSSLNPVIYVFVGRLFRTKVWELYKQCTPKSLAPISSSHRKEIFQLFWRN
# How it was run: (§1)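 Fluo-4 Ca2+ readout, peak fluorescence. Stable CHO K1 transfectants; compound pre-incubated 10-20 min, then EC80 agonist—Lys-Des-Arg9-BK for hB1R, Des-Arg9-BK for rB1R. % inhibition vs maximal inhibition; IC50 from multiple concentrations, duplicate/triplicate, ≥2 independent runs.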
# [2] = biological target: T2, bradykinin 1 receptor (B1R) of the rat (Rattus norvegicus, UniProt P97583); assay: Functional investigation on the rat bradykinin 1 receptor (B1R), Ca2+ FLIPR assay in CHO K1 rB1R cells; assay type: cell-based; settings: B1R antagonism rat; test substance 10 μM; Ca2+ FLIPR, CHO K1 rB1R cells
# T2 construct: expressed in transfected cells; host or cells: CHO K1 cells
# T2 sequence (P97583 1-337): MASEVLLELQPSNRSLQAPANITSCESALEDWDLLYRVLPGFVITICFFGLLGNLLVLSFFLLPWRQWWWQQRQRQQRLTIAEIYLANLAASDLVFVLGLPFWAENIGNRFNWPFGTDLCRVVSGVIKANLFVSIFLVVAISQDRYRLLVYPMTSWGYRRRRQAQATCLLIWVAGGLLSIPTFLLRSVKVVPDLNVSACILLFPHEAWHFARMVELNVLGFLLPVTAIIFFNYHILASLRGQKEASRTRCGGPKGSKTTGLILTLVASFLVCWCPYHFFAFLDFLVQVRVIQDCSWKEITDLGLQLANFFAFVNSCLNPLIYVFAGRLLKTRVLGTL
# How it was run: as §1
Compound,B1R Ant. h [10 μM] % Inhibition [1] [%],B1R Ant. r [10 μM] % Inhibition [2] [%]
CN(C)C(c1cccc(F)c1)C1CCC(CNC(=O)COC2CCN(S(=O)(=O)c3ccccc3)CC2)CC1 (stereo not drawn) [Example 477],−16,17
COc1ccc(S(=O)(=O)N(C)CCOCC(=O)NCC2CCC(C(c3ccc(F)cc3)N(C)C)CC2)cc1 (stereo not drawn) [Example 508],46,42
CN(C)C(c1ccc(F)cc1)C1CCC(CNC(=O)COC2CCN(S(=O)(=O)c3ccc(F)cc3)C2)CC1 (stereo not drawn) [Example 522],1,12
COc1ccc(S(=O)(=O)N2CCCCC2CCOCC(=O)NCC2CCC(C(CCc3ccccc3)N(C)C)CC2)cc1 (stereo not drawn) [Example 535],77,72
COc1ccc(S(=O)(=O)N2CCCCC2COCC(=O)NCCC2CCC(C(c3ccc(Cl)cc3)N(C)C)CC2)c(OC)c1 (stereo not drawn) [Example 474],17,10
COc1cc(C)c(S(=O)(=O)N2CCCC(OCC(=O)NCCC3CCC(C(c4ccc(F)cc4)N(C)C)CC3)C2)c(C)c1C (stereo not drawn) [Example 468],50,33
COc1cc(C)c(S(=O)(=O)N2CCC(OCC(=O)NCC3CCC(C(CCc4ccccc4)N(C)C)CC3)C2)c(C)c1C (stereo not drawn) [Example 503],105,37
COc1cc(C)c(S(=O)(=O)N(CCOCC(=O)NCC2CCC(C(c3ccc(Cl)cc3)N(C)C)CC2)Cc2ccccc2)c(C)c1 (stereo not drawn) [Example 473],52,−3
COc1ccc(S(=O)(=O)N2CCCCC2COCC(=O)NCCC2CCC(C(c3ccc(F)cc3)N(C)C)CC2)c(OC)c1 (stereo not drawn) [Example 500],3,23
COc1ccc(S(=O)(=O)N2CCC(OCC(=O)NC3CCC(C(c4ccc(F)cc4)N(C)C)CC3)C2)cc1OC (stereo not drawn) [Example 512],−4,38
Cc1cc(C)c(S(=O)(=O)N2CCC(OCC(=O)NCCC3CCC(C(c4ccc(F)cc4)N(C)C)CC3)C2)c(C)c1 (stereo not drawn) [Example 501],77,38
CN(C)C(c1ccc(F)cc1)C1CCC(CCNC(=O)COCCC2CCN(S(=O)(=O)c3ccccc3)CC2)CC1 (stereo not drawn) [Example 470],4,23
CN(C)C(CCc1ccccc1)C1CCC(CNC(=O)COCCN2CCN(S(=O)(=O)c3ccccc3)CC2)CC1 (stereo not drawn) [Example 526],10,−30
COc1cc(C)c(S(=O)(=O)N2CCC(CCOCC(=O)NCC3CCC(C(c4ccc(Cl)cc4)N(C)C)CC3)CC2)c(C)c1C (stereo not drawn) [Example 499],25,−10
CN(C)C(CCc1ccccc1)C1CCC(CNC(=O)COC2CCCCC2N(C)S(=O)(=O)c2ccc(Cl)c(Cl)c2)CC1 (stereo not drawn) [Example 451],87,11
COc1cc(C)c(S(=O)(=O)N2CCC(OCC(=O)NCCC3CCC(C(c4ccc(Cl)cc4)N(C)C)CC3)CC2)c(C)c1C (stereo not drawn) [Example 472],1,26
COc1cc(C)c(S(=O)(=O)N2CCC(OCC(=O)NC3CCC(C(c4ccc(F)cc4)N(C)C)CC3)CC2)c(C)c1C (stereo not drawn) [Example 454],45,10
CN(C)C(c1ccc(F)cc1)C1CCC(CCNC(=O)COC2CCN(S(=O)(=O)c3ccc(F)cc3)C2)CC1 (stereo not drawn) [Example 518],−2,26

Compound,B1R Ant. h [10 μM] % Inhibition [1] [%],B1R Ant. r [10 μM] % Inhibition [2] [%]
COc1ccc(S(=O)(=O)N2CCCC2COCC(=O)NC2CCC(C(c3ccc(F)cc3)N(C)C)CC2)cc1 (stereo not drawn) [Example 461],13,20
CN(C)C(c1ccc(F)cc1)C1CCC(CNC(=O)COC2CCN(S(=O)(=O)c3ccccc3)C2)CC1 (stereo not drawn) [Example 532],5,−14
COc1ccc(S(=O)(=O)N2CCCCC2COCC(=O)NC2CCC(C(c3ccc(F)cc3)N(C)C)CC2)c(OC)c1 (stereo not drawn) [Example 524],−11,26
CN(C)C(c1ccc(Cl)cc1)C1CCC(CNC(=O)COC2CCN(S(=O)(=O)c3ccccc3)CC2)CC1 (stereo not drawn) [Example 471],7,15
COc1cc(C)c(S(=O)(=O)N2CCC(CCOCC(=O)NCC3CCC(C(CCc4ccccc4)N(C)C)CC3)CC2)c(C)c1C (stereo not drawn) [Example 521],66,11
COc1cc(C)c(S(=O)(=O)N2CCC(CCOCC(=O)NCC3CCC(C(c4ccc(F)cc4)N(C)C)CC3)CC2)c(C)c1C (stereo not drawn) [Example 481],9,49
CCN(CCOCC(=O)NCC1CCC(C(CCc2ccccc2)N(C)C)CC1)S(=O)(=O)c1c(C)cc(OC)c(C)c1C (stereo not drawn) [Example 536],105,95
CN(C)C(c1ccc(F)cc1)C1CCC(CCNC(=O)COC2CCN(S(=O)(=O)c3ccc(Cl)cc3)C2)CC1 (stereo not drawn) [Example 464],−2,−6
COc1ccc(S(=O)(=O)N2CCCC2COCC(=O)NCC2CCC(C(c3ccc(F)cc3)N(C)C)CC2)cc1 (stereo not drawn) [Example 511],38,17
COc1cc(C)c(S(=O)(=O)N2CCCC(OCC(=O)NCCC3CCC(C(c4ccc(Cl)cc4)N(C)C)CC3)C2)c(C)c1C (stereo not drawn) [Example 485],5,6
COc1ccc(S(=O)(=O)N2CCCCC2COCC(=O)NCCC2CCC(C(c3ccc(Cl)cc3)N(C)C)CC2)cc1OC (stereo not drawn) [Example 540],−19,19
CN(C)C(c1ccc(Cl)cc1)C1CCC(CNC(=O)COCCN(C)S(=O)(=O)c2ccc(Cl)cc2Cl)CC1 (stereo not drawn) [Example 459],29,26
CN(C)C(c1ccc(F)cc1)C1CCC(CCNC(=O)COCC2CCCN(S(=O)(=O)c3ccccc3)C2)CC1 (stereo not drawn) [Example 479],18,22
COc1ccc(S(=O)(=O)N2CCCCC2COCC(=O)NCCC2CCC(C(c3ccc(F)cc3)N(C)C)CC2)cc1OC (stereo not drawn) [Example 462],−8,−13
CN(C)C(CCc1ccccc1)C1CCC(CNC(=O)COCCN(C)S(=O)(=O)c2c(Cl)cc(Cl)cc2Cl)CC1 (stereo not drawn) [Example 515],101,54
COc1ccc(S(=O)(=O)N2CCCCC2COCC(=O)NC2CCC(C(c3ccc(F)cc3)N(C)C)CC2)cc1 (stereo not drawn) [Example 450],40,52
CN(C)C(c1ccc(Cl)cc1)C1CCC(CCNC(=O)COCCC2CCN(S(=O)(=O)c3ccccc3)CC2)CC1 (stereo not drawn) [Example 531],2,−1
CN(C)C(c1ccc(F)cc1)C1CCC(CCNC(=O)COC2CCN(S(=O)(=O)c3ccc(Cl)cc3Cl)C2)CC1 (stereo not drawn) [Example 456],80,48
